{"source": "patent US20220008508A1", "about": "“RELAXIN RECEPTOR 1 FOR USE IN TREATMENT AND PREVENTION OF HEART FAILURE” (Universität Heidelberg, priority 2018, published 2022)", "key": {"[1]": {"molecular_target": "T1, human RXFP1 (Homo sapiens, UniProt Q9HBX9)", "T1 construct": "synthesized and cloned into a pCDNA3.1 plasmid with N-terminal FLAG-TAG; expressed in transfected cells; host or cells: neonatal rat ventricular cardiomyocytes (NRVMs) transduced with AAV6-huRXFP1", "T1 sequence (Q9HBX9 other isoform, or with tags, fused parts or gaps)": "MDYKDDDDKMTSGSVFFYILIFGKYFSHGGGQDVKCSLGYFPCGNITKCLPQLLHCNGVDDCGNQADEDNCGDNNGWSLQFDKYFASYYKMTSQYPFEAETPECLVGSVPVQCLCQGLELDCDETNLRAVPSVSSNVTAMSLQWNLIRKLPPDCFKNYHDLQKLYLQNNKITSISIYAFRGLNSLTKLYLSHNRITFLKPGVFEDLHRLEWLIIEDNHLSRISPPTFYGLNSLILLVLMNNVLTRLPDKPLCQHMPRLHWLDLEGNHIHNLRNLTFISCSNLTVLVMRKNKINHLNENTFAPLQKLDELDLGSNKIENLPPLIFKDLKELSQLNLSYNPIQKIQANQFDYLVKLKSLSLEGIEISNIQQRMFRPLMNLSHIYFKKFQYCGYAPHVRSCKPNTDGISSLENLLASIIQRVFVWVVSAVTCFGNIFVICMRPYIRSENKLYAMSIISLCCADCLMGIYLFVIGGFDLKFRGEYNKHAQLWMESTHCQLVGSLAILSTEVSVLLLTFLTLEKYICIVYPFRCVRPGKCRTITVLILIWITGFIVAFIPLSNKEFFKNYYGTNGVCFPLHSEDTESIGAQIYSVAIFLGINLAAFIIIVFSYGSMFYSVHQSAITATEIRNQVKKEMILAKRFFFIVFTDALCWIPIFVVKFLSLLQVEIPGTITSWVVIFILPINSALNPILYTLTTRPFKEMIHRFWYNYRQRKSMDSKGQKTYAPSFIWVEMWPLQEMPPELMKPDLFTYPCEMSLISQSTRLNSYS", "assay": "P-PLB(S16) immunoblot in NRVMs transduced with human RXFP1 virus", "assay_type": "cell-based, rat", "from_the_text": "(§1) Images were processed using Odyssey imaging software."}, "[2]": {"molecular_target": "T2, rat RXFP1 (Rattus norvegicus, UniProt Q6R6I6)", "T2 construct": "expressed in transfected cells", "T2 sequence (Q6R6I6 1-758)": "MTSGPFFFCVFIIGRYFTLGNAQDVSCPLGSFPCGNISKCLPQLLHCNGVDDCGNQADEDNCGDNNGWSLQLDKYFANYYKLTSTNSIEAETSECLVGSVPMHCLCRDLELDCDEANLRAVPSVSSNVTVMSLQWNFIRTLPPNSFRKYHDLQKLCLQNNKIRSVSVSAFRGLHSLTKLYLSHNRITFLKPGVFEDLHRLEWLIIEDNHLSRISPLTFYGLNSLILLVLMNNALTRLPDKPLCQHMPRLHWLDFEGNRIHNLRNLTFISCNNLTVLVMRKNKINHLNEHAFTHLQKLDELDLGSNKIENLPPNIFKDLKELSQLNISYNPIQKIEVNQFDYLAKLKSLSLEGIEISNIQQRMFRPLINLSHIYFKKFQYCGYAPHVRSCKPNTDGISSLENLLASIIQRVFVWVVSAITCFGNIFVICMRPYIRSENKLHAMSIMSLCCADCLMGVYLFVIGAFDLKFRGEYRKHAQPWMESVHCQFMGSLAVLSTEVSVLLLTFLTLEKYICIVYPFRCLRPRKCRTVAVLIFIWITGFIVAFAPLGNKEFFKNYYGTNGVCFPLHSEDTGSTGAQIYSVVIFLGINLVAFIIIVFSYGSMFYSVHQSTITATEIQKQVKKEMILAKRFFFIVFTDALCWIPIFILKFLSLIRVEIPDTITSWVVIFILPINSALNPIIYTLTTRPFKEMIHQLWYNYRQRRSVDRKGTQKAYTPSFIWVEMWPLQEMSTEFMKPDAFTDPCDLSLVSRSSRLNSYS", "assay": "P-PLB(S16) immunoblot in NRVMs transduced with rat RXFP1 virus", "assay_type": "cell-based", "conditions": "1 μM ML290 for 30 minutes", "from_the_text": "as §1"}, "[3]": {"molecular_target": "rat (Rattus norvegicus) relaxin receptor 1 (RXFP1) with N-terminal FLAG-TAG, expressed in neonatal rat ventricular cardiomyocytes from AAV6-CMV-MLC260-FLAG-Rel1 Rattus (Rattus norvegicus) (UniProt Q6R6I6)", "assay": "cell-based or functional assay"}}}
{"compound": "CC(C)Oc1ccccc1C(=O)Nc1ccccc1C(=O)Nc1cccc(S(=O)(=O)C(F)(F)F)c1", "note": "[ML290, 2-Isopropoxy-N-(2-(3-(trifluoromethylsulfonyl)phenylcarbamoyl)phenyl)benzamide]", "values": [{"measurement": "P-PLB(S16), 1 μM ML290 vs 100 nM recombinant RLN", "setting": "[1]", "value": "No difference"}, {"measurement": "P-PLB(S16)", "setting": "[1]; 1 μM ML290 for 30 minutes", "value": "Significant increase"}, {"measurement": "P-PLB(S16)", "setting": "[2]", "value": "Marked increase"}]}
{"compound": "recombinant relaxin H2 (from UniProt P04090 25-53; P04090 162-185) (ligand)", "values": [{"measurement": "RLN concentration of peak cAMP stimulation in transduced NRVMs", "setting": "[3]", "value": 10, "unit": "nM"}]}
